Laboratory results reported in ChEMBL document CHEMBL1153262, “Polyketide synthase thioesterases catalyze rapid hydrolysis of peptidyl thioesters” (Bioorg Med Chem Lett, 2009).

Legend:
[1] = Ratio of kcat/km of PKS TEs assessed as hydrolysis of epothilone
[2] = Activity at PKS TEs assessed as hydrolysis of epothilone
[3] = Ratio of kcat/km of PKS TEs assessed as hydrolysis of 6-deoxyerythronolide-B
[4] = Ratio of kcat/km of PKS TEs assessed as hydrolysis of pimaricin
[5] = Activity at PKS TEs assessed as hydrolysis of pimaricin

Row | Structure (SMILES) | kcat/Km [1] [M⁻¹ s⁻¹] | Km [2] [µM] | kcat [2] [s⁻¹] | kcat/Km [3] [M⁻¹ s⁻¹] | kcat/Km [4] [M⁻¹ s⁻¹] | Km [5] [µM] | kcat [5] [s⁻¹]
1 | CC(=O)NCCSC(=O)CNC(=O)[C@@H](C)NC(=O)OC(C)(C)C | 38.8 | 1300 | 0.0517 | 0.8 | – | – | –
2 | CC(=O)NCCSC(=O)[C@@H](C)NC(=O)OC(C)(C)C | 12.5 | – | – | 0.5 | – | – | –
3 | CC(=O)NCCSC(=O)[C@H](C)NC(=O)OC(C)(C)C | 91.3 | – | – | 0.88 | – | – | –
4 | CC(=O)NCCSC(=O)CNC(=O)OC(C)(C)C | 145 | – | – | 7 | 1.29 | – | –
5 | CC(=O)NCCSC(=O)CNC(=O)[C@H](C)NC(=O)OC(C)(C)C | 110 | 2900 | 0.32 | 0.39 | – | – | –
6 | CC(=O)NCCSC(=O)CCCCCCNC(=O)OC(C)(C)C | 75.1 | 400 | 0.0303 | 1.47 | 23.3 | 800 | 0.02
7 | CC(=O)NCCSC(=O)CCNC(=O)c1ccccc1 | 24.2 | – | – | 7.75 | 1.14 | – | –
